In patent US8580805B2, “Pyrimidine carboxamide derivatives” (priority 2010, dated 2013):

Tests used:
[1] = system: adjuvant-induced arthritis in male Lewis rats; test: adjuvant-induced arthritis test in rats; format: in vivo, rat; settings: change day 28 minus day 21; 30 mg/kg by intubation each day for seven days; vehicle result in parenthesis
Protocol: As mentioned earlier, the compounds of formula (1) and pharmaceutically acceptable salts of compounds of formula (1) are useful in the treatment or prevention of inflammations and diseases where inflammation is the innate cause. For example, they can be used as anti-inflammatory agents in the treatment of inflammatory joint diseases, such as arthritis. To substantiate this assertion, representative compounds of formula (1) were tested for their inflammation-inhibiting properties in the adjuvant-induced arthritis test in rats as described in Int J Immunopharma, […], 12, 709-712.
A quantity of 0.1 ml of a 0.5% (weight/volume) suspension of heat-killed and dried mycobacterium butyricum in heavy mineral oil, containing 0.2% digitonin, is injected into the base of the tail of male Lewis rats (120-140 g). The animals are housed individually and receive feed and water ad libitum. The thus-induced arthritis is allowed to develop without treatment during 21 days. On day 21 the body weight of each animal is determined. At the same time, the volumes of the two hind paws of each animal are measured by immersing the paws in an aqueous plethysmograph up to the height of the lateral malleolus. Thereupon, the animals are divided into groups, each group comprising six animals of approximately the same average volumes of the hind paws. One group is administered suspending vehicle. The other groups are administered the micronized test compound suspended in an aqueous suspending vehicle [0.9% NaCl (w/v) containing 0.5% carboxymethyl cellulose (w/v), 0.86% benzyl alcohol (v/v) and 0.39% Tween 80 (v/v)]. The test compound in aqueous suspending vehicle (or vehicle alone) is administered to the animals by intubation each day over a period of seven days. The effect of the test compounds is monitored daily by measurement of the hind paw volumes and body weights. At the end of the treatment period (day 28), body weights and volumes of the hind paws are again determined. The changes over the treatment period are calculated. The change in paw volume or body weight equals the paw volume or body weight on day 28 minus paw volume or body weight on day 21.
The results determined for representative compounds of formula (1) in the test described hereinbefore are set forth in the following Table I. Therein, the results for vehicle is in parenthesis following the results for each tested compound at a dose level of 30 mg/kg in each test.

[2] = system: purified potato 5-lipoxygenase; test: LOX Inhibitor Screening Assay Kit (Cayman), colorimetric; format: biochemical; settings: arachidonic acid as substrate
Protocol: A representative compounds of formula (1a), was also tested for the effects on the activity of purified COX1, COX2, and LOX5 enzymes. In sharp contrast to the potent activity in the adjuvant-induced arthritis test in rats, the activity against the isolated arachidonic acid metabolizing enzymes was low. LOX5 activity was also measured colorimetrically by the hydroperoxides generated from the incubation of purified potato 5-lipoxygenase (Cayman Chemical Item Number 60401) in the LOX Inhibitor Screening Assay Kit (Cayman Chemical Item Number 760700) using arachidonic acid as substrate and following the protocol provided by Cayman Chemical. The test substance A inhibited the enzyme at 300, 100, 30 μM at 89, 69, and 46%, respectively.

ovine COX-1 = target: T1, ovine COX-1 (Ovis aries, UniProt P05979); test: COX Activity Assay (Cayman), colorimetric, COX-1; format: biochemical; settings: at a level of 300 μM
T1 construct: purchased Cayman Chemicals
T1 sequence (P05979 25-600): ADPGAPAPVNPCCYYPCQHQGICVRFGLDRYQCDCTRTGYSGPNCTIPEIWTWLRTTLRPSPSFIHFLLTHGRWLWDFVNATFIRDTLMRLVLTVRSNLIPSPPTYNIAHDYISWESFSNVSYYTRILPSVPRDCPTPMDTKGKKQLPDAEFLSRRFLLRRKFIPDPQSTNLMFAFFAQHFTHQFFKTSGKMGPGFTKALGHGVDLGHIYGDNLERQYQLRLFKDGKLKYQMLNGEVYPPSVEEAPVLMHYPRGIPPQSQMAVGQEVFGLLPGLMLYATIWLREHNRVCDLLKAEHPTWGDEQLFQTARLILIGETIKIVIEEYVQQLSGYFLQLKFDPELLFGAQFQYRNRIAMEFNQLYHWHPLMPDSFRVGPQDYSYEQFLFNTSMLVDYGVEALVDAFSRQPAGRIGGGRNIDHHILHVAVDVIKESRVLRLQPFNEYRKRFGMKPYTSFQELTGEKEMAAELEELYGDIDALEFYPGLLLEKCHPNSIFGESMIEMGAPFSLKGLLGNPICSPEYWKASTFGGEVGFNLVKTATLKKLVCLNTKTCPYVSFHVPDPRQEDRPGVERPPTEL
Protocol: (§1) A representative compounds of formula (1a), was also tested for the effects on the activity of purified COX1, COX2, and LOX5 enzymes. In sharp contrast to the potent activity in the adjuvant-induced arthritis test in rats, the activity against the isolated arachidonic acid metabolizing enzymes was low.
(§2) COX activity was measured using an assay kit obtained from Cayman Chemicals in accord with the instruction manual of the manufacturer “COX Activity Assay, Catalog No. 760151, Colorimetric Assay for the Determination of COX Activity.” The enzyme activity was determined by the peroxidase activity of cyclooxygenases on arachidonic acid and monitored colorimetrically at 590 nm by the appearance of oxidized N,N,N′,N′-tetramethyl-p-phenylenediamine. Both ovine COX-1 and human recombinant COX-2 were obtained from Cayman Chemicals.

human recombinant COX-2 = target: T2, human recombinant COX-2 (Homo sapiens, UniProt P35354); test: COX Activity Assay (Cayman), colorimetric, COX-2; format: biochemical; settings: read-out: IC50 for COX2
T2 construct: purchased Cayman Chemicals
T2 sequence (P35354 18-604): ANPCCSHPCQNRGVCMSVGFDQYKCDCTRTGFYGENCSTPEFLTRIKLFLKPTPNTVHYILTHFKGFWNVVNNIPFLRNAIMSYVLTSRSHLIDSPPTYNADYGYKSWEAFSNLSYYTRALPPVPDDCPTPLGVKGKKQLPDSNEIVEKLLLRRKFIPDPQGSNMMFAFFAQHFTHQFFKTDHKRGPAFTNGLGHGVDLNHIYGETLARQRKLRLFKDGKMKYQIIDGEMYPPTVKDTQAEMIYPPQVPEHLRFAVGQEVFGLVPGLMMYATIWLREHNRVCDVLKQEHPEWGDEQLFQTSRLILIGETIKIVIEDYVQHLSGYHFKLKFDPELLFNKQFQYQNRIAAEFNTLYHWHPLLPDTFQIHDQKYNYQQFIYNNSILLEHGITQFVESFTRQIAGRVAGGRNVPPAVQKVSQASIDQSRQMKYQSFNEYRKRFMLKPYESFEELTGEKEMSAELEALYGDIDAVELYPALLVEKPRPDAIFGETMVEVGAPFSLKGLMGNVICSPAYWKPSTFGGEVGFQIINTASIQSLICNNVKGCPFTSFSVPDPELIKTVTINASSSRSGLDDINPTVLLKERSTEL
Protocol: as §1, §2

| LOX5 inhibition ([2]; 30 μM) | LOX5 inhibition ([2]; 100 μM) | LOX5 inhibition ([2]; 300 μM) | effect on COX1 (ovine COX-1) | IC50 (human recombinant COX-2) | SMILES | Body weight change (g) [1] | Left paw volume (mL) [1] | Right paw volume (mL) [1] |
| --- | --- | --- | --- | --- | --- | --- | --- | --- |
|  |  |  |  |  | CNC(=O)c1cnc(OC)nc1-c1cc(C(C)(C)C)c(O)c(C(C)(C)C)c1 [C, 4-(3,5-di-tert-butyl-4-hydroxy-phenyl)-2-methoxy-pyrimidine-5-carboxylic acid methylamide] | 28 ± 2 (13) g | −0.65 ± 0.02 (0.09) mL | −0.61 ± 0.01 (0.08) mL |
| 46% | 69% | 89% | no effect | 60 µM | CNC(=O)c1cnc(C)nc1-c1cc(C(C)(C)C)c(O)c(C(C)(C)C)c1 [Compound A, 4-(3,5-di-tert-butyl-4-hydroxy-phenyl)-2-methyl-pyrimidine-5-carboxylic acid methylamide] | 25 ± 3 (13) g | −0.88 ± 0.12 (0.09) mL | −0.99 ± 0.15 (0.08) mL |
